According to article PMC10820528, “New Rare Triterpene Glycosides from Pacific Sun Star, Solaster pacificus, and Their Anticancer Activity” (Marine Drugs, 2023):
Read-outs that look alike come from different tables or passages of the source.

Legend:
[1] = tested on: breast cancer MDA-MB-231 cells; assay: cells; type: cell-based; conditions: for IC50: read-out: IC50, MDA-MB-231
Description: (§1) We calculated the inhibiting concentration that cause death of 50% of cells (IC50) and the selectivity index (SI) of the compounds tested (Table 4).
(§2) The human embryonic kidney HEK 293 cells (ATCC® CRL-1573™), breast cancer MDA-MB-231 cells (ATCC® HTB-26™), and colorectal carcinoma HCT 116 cells (ATCC® CCL-247™) were purchased from the American Type Culture Collection (Manassas, VA, USA). The HEK 293 and MDA-MB-231 cells were cultured in DMEM; the HCT 116 cells were cultured in the McCoy’s 5A medium at 37 °C in a humidified atmosphere containing 5% CO2. The culture media were supplemented with 10% heat-inactivated FBS and a 1% penicillin/streptomycin solution. The number of passages was carefully controlled, and contamination by Mycoplasma was monitored on a regular basis.
(§3) Compounds 1–3, and 6–8 were dissolved in sterile dimethyl sulfoxide (DMSO), to prepare stock concentrations of 20 mM. Cells were treated with serially diluted 1–3, 6–8 (0.3–100 µM) (with the culture medium used as diluent) (the final concentration of DMSO was less than 0.5%). The vehicle control was the cells treated with an equivalent volume of DMSO (the final concentration was less than 0.5%) for all of the presented experiments.
(§4) HEK 293 (1.0 × 10^4/200 µL), HCT 116 (1.0 × 10^4/200 µL), and MDA-MB-231 (0.8 × 10^4/200 µL) cells were seeded in a 96-well plate and incubated for 24 h at 37 °C in a CO2 incubator. […] The cells were subsequently incubated with 15 µL of the MTS reagent for 3 h. The absorbance of each well was measured at 490/630 nm on a Power Wave XS microplate reader (BioTek, Winooski, VT, USA).
(§5) The IC50 concentration was calculated using the AAT-Bioquest® online calculator [24]. The selectivity index (SI) was calculated as described previously, using the following formula: SI = IC50 of the compounds for normal cells (HEK 293) divided by IC50 of the same compounds for the human colorectal adenocarcinoma and breast cancer (HCT 116 and MDA-MB-231) cell lines.

[2] = tested on: human embryonic kidney HEK 293 cells; assay: cells; type: cell-based; conditions: for IC50: read-out: IC50, HEK 293
Description: as §1, §2, §3, §4, §5

[3] = tested on: colorectal carcinoma HCT 116 cells; assay: cells; type: cell-based; conditions: for IC50: Homo sapiens, read-out: IC50, HCT 116
Description: We determined the cytotoxicity of compounds 1–3 and 6–8 against human embryonic kidney HEK 293, colorectal carcinoma HCT 116, and breast cancer MDA-MB-231 cells by the MTS assay, after 24 h of treatment with the compounds. We calculated the inhibiting concentration that cause death of 50% of cells (IC50) and the selectivity index (SI) of the compounds tested (Table 4).
as §2, §3, §4, §5

HT-29 cells = conditions: non-toxic concentration; cited from earlier work
RPMI-7951 cells = conditions: non-toxic concentration; cited from earlier work
MDA-MB-231 cells = conditions: non-toxic concentration; cited from earlier work
SK-MEL-2 cancer cells = tested on: SK-MEL-2 cancer cells; design: method as in PMID 35323516; conditions: non-toxic concentrations; cited from earlier work
JB6 Cl41 cells = tested on: JB6 Cl41 cells; design: method as in PMID 35323516; conditions: induced by chemical carcinogens (EGF and TPA) or ionizing radiation (X-rays and UVB), non-toxic concentrations; cited from earlier work
[4] = MTS assay, cisplatin, 48 h of cell incubation, mean ± SD
[5] = Homo sapiens, MDA-MB-231, MTS assay, 24 h of cell incubation, mean ± SD
[6] = Homo sapiens, HEK293, MTS assay, 24 h of cell incubation, mean ± SD
[7] = HCT-116, MTS assay, 24 h of cell incubation, mean ± SD

Compound: N.N.[Cl][Pt][Cl] [Cisplatin, cisplatin, reference compound]
- IC50 [1, 4]: 34.5 ± 0.5 µM
- IC50 [2, 4]: 64.6 ± 1.5 µM

Compound: C=C(C)C1C2CC3(C)C4=CCC5C(C)(C)C(OC6OCC(O)C(O)C6OC6OC(C)C(O)C(O)C6OC6OCC(O)C(O)C6O)CCC5(C)C4CCC13C(=O)O2 [Compound 1, 3β-O-[β-D-xylopyranosyl-(1→2)-β-D-quinovopyranosyl-(1→2)-β-D-xylopyranosyl]-23,24,25,26,27-pentanor-5α-lanosta-7,20(22)-diene-18(16)-lactone]
- IC50 [1, 5]: 51.2 ± 0.8 µM
- IC50 [2, 6]: 27 ± 0.3 µM
- IC50 [3, 7]: 81 ± 3.2 µM

Compound: CO[C@@H]1[C@@H](O)[C@H](O[C@@H]2[C@@H](O)[C@H](O[C@H]3[C@H](O)[C@@H](O)[C@H](O[C@H]4[C@H](O[C@H]5CC[C@]6(C)C7=C(CC[C@H]6C5(C)C)[C@]5(C)C[C@H](O)[C@H]([C@@](C)(O)CCC=C(C)C)[C@@]5(CO)CC7)OC[C@@H](O)[C@@H]4O)O[C@@H]3C)O[C@H](CO)[C@H]2O)OC[C@H]1O [Compound 3, (20S)-3β-O-[3-O-methyl-β-D-xylopyranosyl-(1→3)-β-D-glucopyranosyl-(1→4)-β-D-quinovopyranosyl-(1→2)-β-D-xylopyranosyl]-16β,18,20-trihydroxy-5α-lanosta-8(9),24-diene]
- cytotoxic activity in words, MDA-MB-231 [1]: Moderate
- IC50 [1, 5]: 36.7 ± 3.3 µM
- SI (selectivity index), MDA-MB-231 ([1]; mean IC50 against normal cells (HEK 293)/mean IC50 against MDA-MB-231, 24 h): 1.4
- cytotoxic activity in words, HEK 293 [2]: Moderate
- IC50 [2, 6]: 52.8 ± 0.8 µM
- cytotoxic activity in words, HCT 116 [3]: Moderate
- IC50 [3, 7]: 42.2 ± 0.4 µM
- SI (selectivity index), HCT 116 ([3]; mean IC50 against normal cells (HEK 293)/mean IC50 against HCT 116, 24 h): 1.25

Compound: COC1C(O)COC(OC2C(O)C(CO)OC(OC3C(C)OC(OC4C(OC5CCC6(C)C7=C(CCC6C5(C)C)C5(C)CC(OC(C)=O)C6C(C)(C=CC=C(C)C)OC(=O)C65CC7)OCC(O)C4O)C(O)C3O)C2O)C1O [Compound 6, 3β-O-[3-O-methyl-β-D-xylopyranosyl-(1→3)-β-D-glucopyranosyl-(1→4)-β-D-quinovopyranosyl-(1→2)-β-D-xylopyranosyl]-16β-acetoxyholosta-8(9),22E,24-triene]
- IC50 [1, 5]: 29.8 ± 2.1 µM
- IC50 [2, 6]: 15.3 ± 1.2 µM
- IC50 [3, 7]: 25.5 ± 1.4 µM

Compound: CC(=O)OC1CC2(C)C3=CCC4C(C)(C)C(OC5OCC(O)C(O)C5OC5OC(C)C(O)C(O)C5OC5OCC(O)C(O)C5O)CCC4(C)C3CCC23C(=O)OC(C)(C=CC=C(C)C)C13 (centres unmarked) [Compound 7, cucumarioside B1]
- IC50 ([1]; Homo sapiens, MDA-MB-231, 24 h): 34 ± 2.9 µM
- IC50 ([2]; Homo sapiens, HEK293, 24 h): 28.5 ± 1.5 µM
- IC50 ([3]; HCT-116, 24 h): 35.6 ± 0.6 µM

Compound: COC1C(O)COC(OC2C(O)C(CO)OC(OC3C(C)OC(OC4C(OC5CCC6(C)C7CCC89C(=O)OC(C)(C=CC=C(C)C)C8C(OC(C)=O)CC9(C)C7=CCC6C5(C)C)OCC(O)C4O)C(O)C3O)C2O)C1O (centres unmarked) [Compound 8, cucumarioside A5]
- IC50 ([1]; Homo sapiens, MDA-MB-231, 24 h): 13.1 ± 4.2 µM
- IC50 ([2]; Homo sapiens, HEK293, 24 h): 6.2 ± 0.7 µM
- IC50 ([3]; HCT-116, 24 h): 11.4 ± 2.7 µM

Compound: CO[C@@H]1[C@@H](O)[C@H](O[C@@H]2[C@@H](O)[C@H](O[C@H]3[C@H](O)[C@@H](O[C@@H]4OC[C@@H](O)[C@H](O)[C@H]4O)[C@H](O[C@H]4[C@H](O[C@H]5CC[C@]6(C)[C@@H]7CCC89C(=O)O[C@@](C)(/C=C\C=C(C)C)[C@H]8[C@@H](OC(C)=O)C[C@@]9(C)C7=CC[C@H]6C5(C)C)OC[C@@H](O)[C@@H]4O)O[C@@H]3C)O[C@H](CO)[C@H]2O)OC[C@H]1O (some centres unmarked) [cucumarioside C1]
- colony formation of HT-29 cells (HT-29 cells): almost completely suppress
- colony formation of RPMI-7951 cells (RPMI-7951 cells): almost completely suppress
- colony formation of MDA-MB-231 cells (MDA-MB-231 cells): almost completely suppress

Compound: COC1C(O)COC(OC2C(O)C(CO)OC(OC3C(C)OC(OC4C(OC5CCC6(C)C7CCC89C(=O)OC(C)(/C=C/C=C(C)C)C8C(OC(C)=O)CC9(C)C7=CCC6C5(C)C)OCC(O)C4O)C(OC4OCC(O)C(O)C4O)C3O)C2O)C1O (centres unmarked) [cucumarioside C2]
- colony formation of HT-29 cells (HT-29 cells): almost completely suppress
- colony formation of RPMI-7951 cells (RPMI-7951 cells): almost completely suppress
- colony formation of MDA-MB-231 cells (MDA-MB-231 cells): almost completely suppress

Compound: COC1C(O)C(CO)OC(OC2C(O)C(CO)OC(OC3C(C)OC(OC4C(OC5CCC6(C)C7CCC89C(=O)OC(C)(C=CC=C(C)C)C8C(OC(C)=O)CC9(C)C7=CCC6C5(C)C)OCC(O)C4O)C(OC4OCC(O)C(O)C4O)C3O)C2O)C1O (centres unmarked) [cucumarioside D]
- colony formation of SK-MEL-2 cancer cells (SK-MEL-2 cancer cells): highest inhibiting effect
- neoplastic transformation of JB6 Cl41 cells (JB6 Cl41 cells): significantly inhibit

Compound: CO[C@@H]1[C@@H](O)[C@H](O[C@@H]2[C@@H](O)[C@H](O[C@H]3[C@H](O)[C@@H](O[C@@H]4OC[C@@H](O)[C@H](O)[C@H]4O)[C@H](O[C@H]4[C@H](O[C@H]5CC[C@]6(C)[C@@H]7CCC89C(=O)O[C@@](C)(/C=C/C=C(C)C)[C@H]8[C@@H](OC(C)=O)C[C@@]9(C)C7=CC[C@H]6C5(C)C)OC[C@@H](O)[C@@H]4O)O[C@@H]3C)O[C@H](CO)[C@H]2O)O[C@H](CO)[C@H]1O (some centres unmarked) [pacificusoside D]
- colony formation of SK-MEL-2 cancer cells (SK-MEL-2 cancer cells): highest inhibiting effect
- neoplastic transformation of JB6 Cl41 cells (JB6 Cl41 cells): significantly inhibit

Compound: pacificusoside C
- colony formation of HT-29 cells (HT-29 cells): almost completely suppress
- colony formation of RPMI-7951 cells (RPMI-7951 cells): almost completely suppress
- colony formation of MDA-MB-231 cells (MDA-MB-231 cells): almost completely suppress
